Measured values as given in patent US10774053B2, “HIV protease inhibitors” (Gilead Sciences, Inc., priority 2017, dated 2020).

Each molecule was assayed on HIV-1 (IIIB) in MT-4 cells (assay: microbe, parasite or virus in culture). Conditions: Human immunodeficiency virus 1, IIIB, MT4, MT-4 cells, HIV-1; read-out: MT4 EC50.
Format: cell-based
Description: Compounds were serially diluted (1:3) in DMSO on 384-well polypropylene plates and further diluted 200-fold into complete RPMI media (10% FBS, 1% P/S) using the Biotek Micro Flow and Agilent ECHO acoustic dispenser. Each plate contained up to 8 test compounds, with negative (No Drug Control) and 5 uM AZT positive controls. MT-4 cells were pre-infected with 10 uL of either RPMI (mock-infected) or a fresh 1:250 dilution of an HIV-1 (IIIB) concentrated virus stock. Infected and uninfected MT-4 cells were further diluted in complete RPMI media and added to each plate using a Micro Flow dispenser. After 5 days incubation in a humidified and temperature controlled incubator (37° C.), Cell Titer Glo (Promega) was added to the assay plates to quantify the amount of luciferase.
`CC(C)(C)C[C@]1(c2ccc(-c3cnn(C(F)F)c3)cc2)NC(=N)N([C@H](COC(=O)NC2(C(F)(F)F)CC2)c2ccc(Cl)c(-n3nccn3)c2)C1=O` [Compound 268] was tested, and the EC50 was 37.8 nM.
Molecule `CC(C)(C)C[C@]1(c2ccc(-c3cnn(C(F)F)c3)cc2)NC(=N)N([C@H](COC(=O)N2CC(C(F)(F)F)C2)c2ccc(Cl)c(-c3ncn[nH]3)c2)C1=O` [Compound 83] has an EC50 of 33.4 nM.
With `CC(C)(C)C[C@]1(c2ccc(-c3cnn(C(F)F)c3)cc2F)NC(=N)N([C@H](COC(=O)N2CC(F)(F)C2)c2ccc(Cl)c(-c3ncn[nH]3)c2)C1=O` [Compound 111] the EC50 was 40.4 nM.
With `CC(C)(C)C[C@]1(c2ccc(-c3cnn(C4CC4)c3)c(F)c2)NC(=N)N([C@H](COC(=O)NC2(C(F)(F)F)CC2)c2ccc(Cl)c(-c3ncnn3C(F)F)c2)C1=O` [Compound 144] the EC50 was 7.92 nM.
In the case of `CC(C)(C)C[C@]1(c2ccc(-c3cnn(C(F)F)c3)cc2)NC(=N)N([C@H](COC(=O)N[C@H]2C[C@@H]2F)c2ccc(Cl)c(-n3ncnc3C(F)F)c2)C1=O` [Compound 338], the EC50 is reported as 9.94 nM.
`CC(C)(C)C[C@]1(c2ccc(-c3cnn(C(F)F)c3)cc2)NC(=N)N([C@H](COC(=O)NC2CC2(F)F)c2ccc(Cl)c(-n3ncnc3C(F)F)c2)C1=O` (stereo partly shown) [Compound 211] was tested, and the EC50 was 10.8 nM.
`CC(C)(C)C[C@]1(c2ccc(-c3cnn(C(F)F)c3)cc2)NC(=N)N([C@H](COC(=O)NC2CC2)c2ccc(Cl)c(-c3ncn[nH]3)c2)C1=O` [Compound 19] was tested, and the EC50 was 49.9 nM.
`CC(C)(C)C[C@]1(c2ccc(-c3cnn(C(F)F)c3)cc2)NC(=N)N([C@H](COC(=O)NC2(C(F)(F)F)CC2)c2ccc(C#N)c(-c3ncnn3C(F)F)c2)C1=O` [Compound 140] showed an EC50 of 266 nM.
`CC(C)(C)C[C@]1(c2ccc(-c3cnn(C(F)F)c3)cc2)NC(=N)N([C@H](COC(=O)NC2(C)CC2)c2ccc(Cl)c(-c3ncn(C(F)F)n3)c2)C1=O` [Compound 70] gave an EC50 of 29.4 nM.
For `CC(C)(C)C[C@]1(c2ccc(-c3cnn(C4CC4)c3)cc2)NC(=N)N([C@H](COC(=O)NC2(C(F)(F)F)CC2)c2ccc(Cl)c(-n3cncn3)c2)C1=O` [Compound 319], the EC50 was 17.8 nM.
Work on `CC(C)(C)C[C@]1(c2ccc(-c3ncns3)cc2F)NC(=N)N([C@H](COC(=O)NC2(C(F)(F)F)CC2)c2ccc(Cl)c(-n3ncnc3C(F)F)c2)C1=O` [Compound 284] yielded an EC50 of 11.4 nM.
`CC(C)(C)C[C@]1(c2ccc(-n3cncn3)cc2)NC(=N)N([C@H](COC(=O)NC2(C(F)(F)F)CC2)c2ccc(Cl)c(-n3ncnc3C(F)F)c2)C1=O` [Compound 229] showed an EC50 of 27.6 nM.
`Cn1ccc(-c2ccc([C@@]3(CC(C)(C)C)NC(=N)N([C@H](COC(=O)N[C@H]4CC4(F)F)c4ccc(Cl)c(-n5ncnc5C(F)F)c4)C3=O)cc2)n1` [Compound 296] gave an EC50 of 8.57 nM.
For `CC(C)(C)C[C@]1(c2ccc(-c3ccc4c(c3)OC(F)(F)O4)cc2)NC(=N)N([C@H](COC(=O)NC2(C(F)(F)F)CC2)c2ccc(Cl)c(-n3ncnc3C(F)F)c2)C1=O` [Compound 283], the EC50 was 113 nM.
Molecule `CC(C)(C)C[C@]1(c2ccc(-c3cnn(C4CC4)c3)c(F)c2F)NC(=N)N([C@H](COC(=O)NC2(C(F)(F)F)CC2)c2ccc(Cl)c(-c3ncnn3C(F)F)c2)C1=O` [Compound 136] has an EC50 of 7.91 nM.
For `Cn1ncnc1-c1cc([C@@H](COC(=O)NC2CC2)N2C(=N)N[C@](CC(C)(C)C)(c3ccc(-c4cnn(C(F)F)c4)cc3)C2=O)ccc1Cl` [Compound 18], the EC50 was 9.56 nM.
Work on `CC(C)(F)C[C@]1(c2ccc(-c3ncccn3)cc2F)NC(=N)N([C@H](COC(=O)NC(C)(C)C(F)F)c2ccc(Cl)c(-c3ncnn3C(F)F)c2)C1=O` [Compound 132] yielded an EC50 of 48 nM.
Work on `CC(C)(C)C[C@]1(c2ccc(-c3cnn(C(F)F)c3)cc2)NC(=N)N([C@H](COC(=O)Nc2ccccn2)c2ccc(Cl)c(-n3ncnc3C(F)F)c2)C1=O` [Compound 181] yielded an EC50 of 29 nM.
For `CC(C)(C)C[C@]1(c2ccc(-c3cnn(C(F)F)c3)cc2)NC(=N)N([C@H](CO)c2ccc(Cl)c(-n3ncnc3C(F)F)c2)C1=O` [Compound 186], the EC50 was 80.2 nM.
`CC(C)(C)C[C@]1(c2ccc(-c3cnn(C(F)F)c3)cc2)NC(=N)N([C@H](COC(=O)NC(C)(CO)CO)c2ccc(Cl)c(-c3ncn[nH]3)c2)C1=O` [Compound 102] was tested, and the EC50 was 196 nM.
Work on `CC(C)(F)C[C@]1(c2ccc(-c3cnccn3)cc2)NC(=N)N([C@H](COC(=O)NC2(C(F)(F)F)CC2)c2ccc(Cl)c(-n3ncnc3C(F)F)c2)C1=O` [Compound 328] yielded an EC50 of 22.4 nM.
`CC(C)(C)C[C@]1(c2ccc(-c3cnn(C(F)F)c3)cc2)NC(=N)N([C@H](COC(=O)NC2(C(F)(F)F)CC2)c2ccc(C(N)=O)c(-c3ncnn3C(F)F)c2)C1=O` [Compound 141] was tested, and the EC50 was 1020 nM.
`COc1ccc([C@@]2(CC(C)(C)C)NC(=N)N([C@H](COC(=O)N(C)C)c3ccc(Cl)c(-c4nccn4C)c3)C2=O)c(F)c1` [Compound 9] showed an EC50 of 1690 nM.
`CC(C)(C)C[C@]1(c2ccc(-n3nccn3)cc2)NC(=N)N([C@H](COC(=O)NC2(C(F)(F)F)CC2)c2ccc(Cl)c(-n3ncnc3C(F)F)c2)C1=O` [Compound 226] was tested, and the EC50 was 10.6 nM.
For `Cn1ncnc1-c1cc([C@@H](COC(=O)NC(C)(C)C(F)F)N2C(=N)N[C@](CC(C)(C)C(F)(F)F)(c3ccc(-c4cnn(C(F)F)c4)cc3)C2=O)ccc1Cl` [Compound 130], the EC50 was 18.7 nM.
Work on `CC(C)(C)C[C@]1(c2ccc(-c3cnn(C(F)F)c3)cc2)NC(=N)N([C@H](COC(=O)NC2(C(F)(F)F)CC2)c2ccc(Cl)c(C#N)c2)C1=O` [Compound 71] yielded an EC50 of 324 nM.
In the case of `CC(C)(C)C[C@]1(c2ccc(C#N)cc2)NC(=N)N([C@H](COC(=O)NC2(C(F)(F)F)CC2)c2ccc(Cl)c(-n3ncnc3C(F)F)c2)C1=O` [Compound 280], the EC50 is reported as 20.7 nM.
`CC(C)(C)C[C@]1(c2ccc(-c3cccc(=O)[nH]3)cc2)NC(=N)N([C@H](COC(=O)NC2(C(F)(F)F)CC2)c2ccc(Cl)c(-n3cncn3)c2)C1=O` [Compound 249] was tested, and the EC50 was 325 nM.
For `[2H]C([2H])([2H])n1cnc(-c2cc([C@@H](COC(=O)NC(C)(C)C(F)F)N3C(=N)N[C@](C[C@@]4(C)CC4(F)F)(c4ccc(-c5cnn(C(F)F)c5)cc4)C3=O)ccc2Cl)n1` [Compound 96], the EC50 was 83.7 nM.
`CC(C)(C)C[C@]1(c2ccc(-c3ncccn3)cc2F)NC(=N)N([C@H](COC(=O)NC2(C(F)(F)F)CC2)c2ccc(Cl)c(-n3ncnc3C(F)F)c2)C1=O` [Compound 197] showed an EC50 of 11.2 nM.
`CC1(C[C@]2(c3ccc(-c4cnn(C5CC5)c4)cc3)NC(=N)N([C@H](COC(=O)NC3(C(F)(F)F)CC3)c3ccc(Cl)c(-c4ncnn4C(F)F)c3)C2=O)CC1` [Compound 139] was tested, and the EC50 was 28.1 nM.
Work on `CC(C)(CC#N)C[C@]1(c2ccc(-c3cnn(C4CC4)c3)cc2)NC(=N)N([C@H](COC(=O)NC2(C(F)(F)F)CC2)c2ccc(Cl)c(-n3ncnc3C(F)F)c2)C1=O` [Compound 362] yielded an EC50 of 36.4 nM.
`CC(C)(C)C[C@]1(c2ccc(-c3cnccn3)cc2F)NC(=N)N([C@H](COC(=O)NC2CC2)c2ccc(Cl)c(-c3ncn[nH]3)c2)C1=O` [Compound 21] gave an EC50 of 63.8 nM.
Work on `CC(C)(C)C[C@]1(c2ccc(-c3cnn(C(F)F)c3)cc2)NC(=N)N([C@H](COC(=O)N2CC(F)(F)C2)c2ccc(Cl)c(-n3cccn3)c2)C1=O` [Compound 261] yielded an EC50 of 29 nM.
Molecule `CC(C)(C)C[C@]1(c2ccc(-c3ccccn3)cc2)NC(=N)N([C@H](COC(=O)NC2(C(F)(F)F)CC2)c2ccc(Cl)c(-n3cncn3)c2)C1=O` [Compound 320] has an EC50 of 22.5 nM.
`CC(C)(C)C[C@]1(c2ccc(-c3cnn(C(F)F)c3)cc2)NC(=N)N([C@H](COC(=O)N[C@@H]2C[C@H]2F)c2ccc(Cl)c(-n3ncnc3C(F)F)c2)C1=O` [Compound 337] was tested, and the EC50 was 9.75 nM.
`C[C@H](NC(=O)OC[C@H](c1ccc(Cl)c(-n2ncnc2C(F)F)c1)N1C(=N)N[C@](CC(C)(C)C)(c2ccc(-c3cnn(C4CC4)n3)cc2)C1=O)C(F)(F)F` [Compound 230] gave an EC50 of 7.62 nM.
Work on `C[C@@H](NC(=O)OC[C@H](c1ccc(Cl)c(-n2ncnc2C(F)F)c1)N1C(=N)N[C@](CC(C)(C)C)(c2ccc(-c3cnn(C(F)F)c3)cc2)C1=O)C(F)F` [Compound 343] yielded an EC50 of 17 nM.
`CC(C)(C)C[C@]1(c2ccc(-c3cnn(C(F)F)c3)cc2)NC(=N)N([C@H](COC(=O)NCC(F)F)c2ccc(Cl)c(-n3ncnc3C(F)F)c2)C1=O` [Compound 219] gave an EC50 of 8.8 nM.
With `CC(C)n1ncc(-c2ccc([C@@]3(CC(C)(C)C)NC(=N)N([C@H](COC(=O)NC4(C(F)(F)F)CC4)c4ccc(Cl)c(-n5ncnc5C(F)F)c4)C3=O)cc2)n1` [Compound 371] the EC50 was 26.7 nM.
`CC(C)(C)C[C@]1(c2ccc(-c3ncon3)cc2)NC(=N)N([C@H](COC(=O)NC2(C(F)(F)F)CC2)c2ccc(Cl)c(-n3cncn3)c2)C1=O` [Compound 378] gave an EC50 of 35.6 nM.
In the case of `CC(C)(C)C[C@]1(c2ccc3nc(C4CC4)ccc3c2)NC(=N)N([C@H](COC(=O)NC2(C(F)(F)F)CC2)c2ccc(Cl)c(-n3ncnc3C(F)F)c2)C1=O` [Compound 353], the EC50 is reported as 8.59 nM.
For `C[C@H](NC(=O)OC[C@H](c1ccc(Cl)c(-c2ncnn2C(F)F)c1)N1C(=N)N[C@](CC(C)(C)C)(c2ccc(-c3cnn(C4CC4)n3)cc2)C1=O)C(F)(F)F` [Compound 147], the EC50 was 7.93 nM.

Same assay, conditions: Human immunodeficiency virus 1, IIIB, MT4, read-out: MT4 EC50 (nM)
`[H]/N=C1\N[C@](CC(C)(C)C)(c2ccc(-c3cnn(C(F)F)c3)cc2F)C(=O)N1[C@H](COC(=O)NC1CC1)c1ccc(Cl)c(-c2ncccn2)c1` [Compound 14] was tested, and the EC50 was 68.6 nM.
`CC(C)(C[C@]1(c2ccc(-c3cnn(C4CC4)n3)cc2)NC(=N)N([C@H](COC(=O)NCC(F)(F)F)c2ccc(Cl)c(-c3ncnn3C(F)F)c2)C1=O)C(F)(F)F` [Compound 156] showed an EC50 of 11.1 nM.
Work on `[H]/N=C1\N[C@](CC(C)(C)C)(c2ccc(OC)cc2F)C(=O)N1[C@H](COC(=O)N(C)C)c1ccc(Cl)c(-c2ncccc2F)c1` [Compound 10] yielded an EC50 of 91.9 nM.
